Test results taken from patent US4435426A, “Ethers of phenol active on the cardiovascular system, process for preparing same and use thereof in drugs” (Societe Anonyme dite: Sanofi, priority 1981, dated 1984).

How the values were obtained:
[1] = target: T1, adrenergic β receptors (β2) (Canis lupus familiaris, UniProt P54833); assay: Antagonism of the effects of isoprenaline: hypertension (so in the source) (β2), anaesthetized dog, intravenous; format: in vivo; conditions: 50% inhibition of hypertension (β2) induced by intravenous isoprenaline, i.v., read-out: ID 50 isoprenaline β2
T1 construct: from tissue; host or cells: whole anaesthetized dog (in vivo, systemic arterial pressure)
Experimental: (§1) The dog is anaesthetized with sodium pentobarbital administered intravenously at the dose of 30 mg/kg. A canula placed in the short saphenous vein allows the products to be injected intravenously. The animal is intubed and breathes spontaneously.
(§2) The cardiac frequency and the systemic arterial pressure are studied and the variations of these parameters are observed after intravenous injection of the product to be tested, each product being injected at increasing doses.
(§3) The antagonism of the products vis-a-vis the β stimulant cardiovascular effects of isoprenaline on the adrenergic β receptors was sought. The results are shown in Table below and expressed in ID 50: this is the dose expressed in mg/kg which provokes 50% inhibition of tachycardia (β1) and of hypertension (β2) induced by the isoprenaline administered by intravenous route.

[2] = target: T2, adrenergic β receptors (β1) (Canis lupus familiaris, UniProt P79148); assay: Antagonism of the effects of isoprenaline: tachycardia (β1), anaesthetized dog, intravenous; format: in vivo; conditions: 50% inhibition of tachycardia (β1) induced by intravenous isoprenaline, i.v., read-out: ID 50 isoprenaline β1
T2 construct: The dog is anaesthetized with sodium pentobarbital; from tissue; host or cells: whole anaesthetized dog (in vivo, heart rate)
Experimental: as §1, §2, §3

T1 sequence (P54833 whole entry): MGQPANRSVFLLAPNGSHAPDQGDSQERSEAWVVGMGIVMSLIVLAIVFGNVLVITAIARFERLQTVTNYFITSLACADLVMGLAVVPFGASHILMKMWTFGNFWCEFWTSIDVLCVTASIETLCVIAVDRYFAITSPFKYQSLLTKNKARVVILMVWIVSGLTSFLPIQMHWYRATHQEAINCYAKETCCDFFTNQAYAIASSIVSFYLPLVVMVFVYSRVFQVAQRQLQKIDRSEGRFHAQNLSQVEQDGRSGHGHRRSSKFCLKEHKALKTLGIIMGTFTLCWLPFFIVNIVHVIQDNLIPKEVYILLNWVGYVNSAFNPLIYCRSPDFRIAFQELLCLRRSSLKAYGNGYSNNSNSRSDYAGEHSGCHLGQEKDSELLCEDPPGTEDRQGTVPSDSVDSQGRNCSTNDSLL
T2 sequence (P79148 whole entry): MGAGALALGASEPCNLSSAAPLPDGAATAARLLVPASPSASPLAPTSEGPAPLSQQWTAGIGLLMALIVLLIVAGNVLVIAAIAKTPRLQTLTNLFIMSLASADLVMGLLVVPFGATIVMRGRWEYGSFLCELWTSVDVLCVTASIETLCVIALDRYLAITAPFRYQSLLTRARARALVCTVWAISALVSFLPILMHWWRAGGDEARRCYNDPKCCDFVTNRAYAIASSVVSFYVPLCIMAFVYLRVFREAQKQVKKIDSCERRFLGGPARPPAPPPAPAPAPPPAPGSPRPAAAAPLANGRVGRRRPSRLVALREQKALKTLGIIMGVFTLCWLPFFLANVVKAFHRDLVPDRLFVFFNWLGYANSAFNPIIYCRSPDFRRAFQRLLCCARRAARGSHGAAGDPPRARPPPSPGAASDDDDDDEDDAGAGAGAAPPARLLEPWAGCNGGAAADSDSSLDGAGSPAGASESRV

Compound: CC(C)(C)NCC(O)COc1cccc2c1C(=O)CCC2 (centres unmarked) [compound 7285, 1-(8-oxo 5,6,7,8-tetrahydro 1-naphthyloxy) 2-hydroxy 3-tertiobutylamino propane]
- ED50 [1]: 0.03 mg/kg

Compound: Cc1ccc(OCC(O)CNC(C)(C)C)c2c1CCCC2=O (centres unmarked) [compound 7706]
- ED50 [1]: 0.01 mg/kg
- ED50 [2]: 0.1 mg/kg

Compound: C#CC(C)(C)NCC(O)COc1ccc(C)c2c1C(=O)CCC2 (centres unmarked) [compound 7760]
- ED50 [1]: 0.03 mg/kg
- ED50 [2]: 0.1 mg/kg
